Measurements taken from US20240059698A1 (Accutar Biotechnology Inc., priority 2022, published 2024).

Experiments:
Type in all cases: cell-based
HCC827 cells = experiment: Cell growth inhibition (CellTiter-Glo), HCC827; conditions: Homo sapiens, 72 h, 3 days
Description: 2. Cell Growth Inhibition for HCC827, HCC827-SVD, HCC827-ASV, HCC827-YVMA, and A431.
HCC827(ATCC), HCC827-SVD, HCC827-ASV, and HCC827-YVMA cells were seeded in 96-well plates at 5000 cells/well in 90 μL of RPMI growth medium containing 10% FBS and 1% Penicillin Streptomycin. A431 (ATCC) cells were seeded in 96-well plates at 5000 cells/well in 90 μL of DMEM growth medium containing 10% FBS and 1% Penicillin Streptomycin. Cells were incubated at 37° C. overnight and then administered with 10 μL 10× test compounds prepared in the growth medium at various concentrations. After administration of the compounds, cells were incubated at 37° C. for 3 days. Before the CellTiter-Glo assay, the plates were equilibrated at room temperature for approximately 30 minutes. 100 ul of CellTiter-Glo reagent (Promega) was added to each well. The plates were then incubated at room temperature for 10 minutes and luminescence was recorded by the EnSight® multimode plate reader (PerkinElmer). Table 7 listed selected compounds in cellular growth assay.

[1] = test system: HCC827-SVD cells (human EGFR exon 20 insertion mutant D770_N771insSVD); experiment: Cell growth inhibition (CellTiter-Glo), HCC827-SVD; conditions: 72 h, 3 days
In short: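 HCC827 cells with endogenous EGFR knocked out and lentivirally expressing the insertion mutant (single clone) were seeded at 5000 cells/well in RPMI with 10% FBS. After overnight, compounds added; 3 days at 37 °C, then CellTiter-Glo luminescence.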

[2] = test system: HCC827-YVMA cells (human ERBB2 exon20 insertion mutant A775_G776ins YVMA); experiment: Cell growth inhibition (CellTiter-Glo), HCC827-YVMA; conditions: 72 h, HCC827-YVMA cells, 3 days, CellTiter-Glo, read-out: Cell growth inhibition, GI50 (nM) HCC827-YVMA
In short: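 HCC827 cells transduced with lentiviral codon-optimized mutant (ERBB2 A775_G776insYVMA or EGFR V769_D770insASV), endogenous EGFR knocked out by CRISPR, single clone selected. Cells seeded overnight in RPMI/10% FBS, then exposed to serially diluted compounds at 37 °C for 3 days; viability read by CellTiter-Glo luminescence.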

**Q.** Which GI50 (HCC827 cells) does the source give for `C=CC(=O)N1CCC(c2c[nH]c3ncnc(Nc4ccc(OC5CCCN(S(=O)(=O)c6ccccc6)C5)cc4F)c23)CC1` (stereo in doubt) [Compound 124, (S)-1-(4-(4-((2-fluoro-4-((1-(phenylsulfonyl)piperidin-3-yl)oxy)phenyl)amino)-7H-pyrrolo[2,3-d]pyrimidin-5-yl)piperidin-1-yl)prop-2-en-1-one] here?
**A.** Its GI50 is 200 to 1000 nM.

**Q.** And the GI50 [1]?
**A.** Its GI50 is 200 to 1000 nM.

**Q.** And the GI50 [2]?
**A.** The GI50 was 50 to 200 nM.

**Q.** Which results are given for `C=CC(=O)N1CCC(c2c[nH]c3ncnc(Nc4ccc(OCc5ccnc(NC6CCC6)c5)cc4F)c23)CC1` [Compound 84, 1-(4-(4-((4-((2-(cycloButylamino)pyridin-4-yl)methoxy)-2-fluorophenyl)amino)-7H-pyrrolo[2,3-d]pyrimidin-5-yl)piperidin-1-yl)prop-2-en-1-one]?
**A.** GI50 [1]: < 50 nM; GI50 [2]: 50 to 200 nM

**Q.** How did the GI50 [1] turn out when `C=CC(=O)N1CCC(c2c[nH]c3ncnc(Nc4ccc(OCc5cn(C(C)C)cn5)c(Cl)c4)c23)CC1` [Compound 85, 1-(4-(4-((3-chloro-4-((1-isopropyl-1H-imidazol-4-yl)methoxy)phenyl)amino)-7H-pyrrolo[2,3-d]pyrimidin-5-yl)piperidin-1-yl)prop-2-en-1-one] was run?
**A.** The GI50 was 50 to 200 nM.

**Q.** And the GI50 [2]?
**A.** Its GI50 is 50 to 200 nM.

**Q.** How did the GI50 [1] turn out when `C=CC(=O)N1CCC(c2c[nH]c3ncnc(Nc4ccc(OCc5cncs5)c(Cl)c4)c23)CC1` [Compound 86, 1-(4-(4-((3-chloro-4-(thiazol-5-ylmethoxy)phenyl)amino)-7H-pyrrolo[2,3-d]pyrimidin-5-yl)piperidin-1-yl)prop-2-en-1-one] was run?
**A.** The GI50 was < 50 nM.

**Q.** What about the GI50 [2] of the same compound?
**A.** The GI50 was < 50 nM.

**Q.** Which GI50 [1] does the source give for `C=CC(=O)N1CCC(c2c[nH]c3ncnc(Nc4ccc(OCc5cnc(C(F)(F)F)s5)c(Cl)c4)c23)CC1` [Compound 87, 1-(4-(4-((3-chloro-4-((2-(trifluoromethyl)thiazol-5-yl)methoxy)phenyl)amino)-7H-pyrrolo[2,3-d]pyrimidin-5-yl)piperidin-1-yl)prop-2-en-1-one] here?
**A.** Its GI50 is 50 to 200 nM.

**Q.** And the GI50 [2]?
**A.** The GI50 was 50 to 200 nM.

**Q.** Which GI50 [1] does the source give for `C=CC(=O)N1CCC(c2c[nH]c3ncnc(Nc4ccc(OCc5cccc(C6CC6)n5)c(Cl)c4)c23)CC1` [Compound 88, 1-(4-(4-((3-chloro-4-((6-cyclopropylpyridin-2-yl)methoxy)phenyl)amino)-7H-pyrrolo[2,3-d]pyrimidin-5-yl)piperidin-1-yl)prop-2-en-1-one] here?
**A.** The GI50 was 50 to 200 nM.

**Q.** And the GI50 [2]?
**A.** The GI50 was 50 to 200 nM.

**Q.** `C=CC(=O)N1CCC(c2c[nH]c3ncnc(Nc4ccc(OCc5cc(C6CC6)ccn5)c(Cl)c4)c23)CC1` [Compound 89, 1-(4-(4-((3-chloro-4-((4-cyclopropylpyridin-2-yl)methoxy)phenyl)amino)-7H-pyrrolo[2,3-d]pyrimidin-5-yl)piperidin-1-yl)prop-2-en-1-one] was tested. Which GI50 [1] did it give?
**A.** Its GI50 is 50 to 200 nM.

**Q.** What about the GI50 [2] of the same compound?
**A.** Its GI50 is 50 to 200 nM.

**Q.** With `C=CC(=O)N1CCC(c2c[nH]c3ncnc(Nc4ccc(Oc5ccnc(NC(=O)C(C)(C)C)c5)cc4F)c23)CC1` [Compound 91, N-(4-(4-((5-(1-acryloylpiperidin-4-yl)-7H-pyrrolo[2,3-d]pyrimidin-4-yl)amino)-3-fluorophenoxy)pyridin-2-yl)pivalamide] as the compound, how does the GI50 [1] read?
**A.** Its GI50 is 200 to 1000 nM.

**Q.** What about the GI50 [2] of the same compound?
**A.** The GI50 was < 50 nM.

**Q.** With `C=CC(=O)N1CCC(c2c[nH]c3ncnc(Nc4ccc(OCc5ccnc(-n6ccc(OC)n6)c5)cc4F)c23)CC1` [Compound 92, 1-(4-(4-((2-fluoro-4-((2-(3-methoxy-1H-pyrazol-1-yl)pyridin-4-yl)methoxy)phenyl)amino)-7H-pyrrolo[2,3-d]pyrimidin-5-yl)piperidin-1-yl)prop-2-en-1-one] as the compound, how does the GI50 (HCC827 cells) read?
**A.** Its GI50 is 50 to 200 nM.

**Q.** What about the GI50 [1] of the same compound?
**A.** Its GI50 is 50 to 200 nM.

**Q.** And the GI50 [2]?
**A.** Its GI50 is 50 to 200 nM.

**Q.** What does the source list for `C=CC(=O)N1CCC(c2c[nH]c3ncnc(Nc4ccc(OCc5ccnc(Nc6ccccn6)c5)cc4F)c23)CC1` [Compound 93, 1-(4-(4-((2-fluoro-4-((2-(pyridin-2-ylamino)pyridin-4-yl)methoxy)phenyl)amino)-7H-pyrrolo[2,3-d]pyrimidin-5-yl)piperidin-1-yl)prop-2-en-1-one]?
**A.** GI50 (HCC827 cells): 50 to 200 nM; GI50 [1]: 50 to 200 nM; GI50 [2]: 50 to 200 nM

**Q.** Which results are given for `C=CC(=O)N1CCC(c2c[nH]c3ncnc(Nc4ccc(OCc5nccn5C)c(Cl)c4)c23)CC1` [Compound 94, 1-(4-(4-((3-chloro-4-((1-methyl-1H-imidazol-2-yl)methoxy)phenyl)amino)-7H-pyrrolo[2,3-d]pyrimidin-5-yl)piperidin-1-yl)prop-2-en-1-one]?
**A.** GI50 (HCC827 cells): 50 to 200 nM; GI50 [1]: 50 to 200 nM; GI50 [2]: 50 to 200 nM

**Q.** For `C=CC(=O)N1CCC(c2c[nH]c3ncnc(Nc4ccc(OCc5ncco5)c(Cl)c4)c23)CC1` [Compound 95, 1-(4-(4-((3-chloro-4-(oxazol-2-ylmethoxy)phenyl)amino)-7H-pyrrolo[2,3-d]pyrimidin-5-yl)piperidin-1-yl)prop-2-en-1-one], which GI50 (HCC827 cells) is on record?
**A.** Its GI50 is < 50 nM.

**Q.** What about the GI50 [1] of the same compound?
**A.** Its GI50 is < 50 nM.

**Q.** And the GI50 [2]?
**A.** Its GI50 is < 50 nM.

**Q.** How did the GI50 (HCC827 cells) turn out when `C=CC(=O)N1CCC(c2c[nH]c3ncnc(Nc4ccc(OCc5ccc(-c6ccccc6)nc5)cc4F)c23)CC1` [Compound 96, 1-(4-(4-((2-fluoro-4-((6-phenylpyridin-3-yl)methoxy)phenyl)amino)-7H-pyrrolo[2,3-d]pyrimidin-5-yl)piperidin-1-yl)prop-2-en-1-one] was run?
**A.** Its GI50 is 200 to 1000 nM.

**Q.** What about the GI50 [1] of the same compound?
**A.** The GI50 was > 1000 nM.

**Q.** And the GI50 [2]?
**A.** The GI50 was 200 to 1000 nM.

**Q.** For `C=CC(=O)N1CCC(c2c[nH]c3ncnc(Nc4ccc(OCc5ccnc(-c6ccccc6)c5)cc4F)c23)CC1` [Compound 97, 1-(4-(4-((2-fluoro-4-((2-phenylpyridin-4-yl)methoxy)phenyl)amino)-7H-pyrrolo[2,3-d]pyrimidin-5-yl)piperidin-1-yl)prop-2-en-1-one], which GI50 (HCC827 cells) is on record?
**A.** The GI50 was 200 to 1000 nM.

**Q.** And the GI50 [1]?
**A.** The GI50 was 200 to 1000 nM.

**Q.** What about the GI50 [2] of the same compound?
**A.** Its GI50 is 200 to 1000 nM.

**Q.** For `C=CC(=O)N1CCC(c2c[nH]c3ncnc(Nc4ccc(OCc5cccc(C)n5)c(Cl)c4)c23)CC1` [Compound 98, 1-(4-(4-((3-chloro-4-((6-methylpyridin-2-yl)methoxy)phenyl)amino)-7H-pyrrolo[2,3-d]pyrimidin-5-yl)piperidin-1-yl)prop-2-en-1-one], which GI50 (HCC827 cells) is on record?
**A.** Its GI50 is < 50 nM.

**Q.** And the GI50 [1]?
**A.** The GI50 was < 50 nM.

**Q.** What about the GI50 [2] of the same compound?
**A.** The GI50 was < 50 nM.

**Q.** What does the source list for `C=CC(=O)N1CCC(c2c[nH]c3ncnc(Nc4ccc(Oc5ccnc(N6CC(N(C)C)C6)c5)cc4F)c23)CC1` [Compound 129, 1-(4-(4-((4-((2-(3-(dimethylamino)azetidin-1-yl)pyridin-4-yl)oxy)-2-fluorophenyl)amino)-7H-pyrrolo[2,3-d]pyrimidin-5-yl)piperidin-1-yl)prop-2-en-1-one]?
**A.** GI50 [1]: 200 to 1000 nM; GI50 [2]: 200 to 1000 nM

**Q.** What does the source list for `C=CC(=O)N1CCC(c2c[nH]c3ncnc(Nc4ccc(Oc5ccnc(N6CC(O)(C(C)C)C6)c5)cc4F)c23)CC1` [Compound 130, 1-[4-[4-[2-fluoro-4-[[2-(3-hydroxy-3-isopropyl-azetidin-1-yl)-4-pyridyl]oxy]anilino]-7H-pyrrolo[2,3-d]pyrimidin-5-yl]-1-piperidyl]prop-2-en-1-one]?
**A.** GI50 [1]: 50 to 200 nM; GI50 [2]: 50 to 200 nM

**Q.** How did the GI50 [1] turn out when `C=CC(=O)N1CCC(c2csc3ncnc(Nc4ccc(Oc5ccnc(NC(=O)C6CCCC6)c5)cc4F)c23)CC1` [Compound 161, N-(4-(4-((5-(1-acryloylpiperidin-4-yl)thieno[2,3-d]pyrimidin-4-yl)amino)-3-fluorophenoxy)pyridin-2-yl)cyclopentanecarboxamide] was run?
**A.** Its GI50 is 200 to 1000 nM.

**Q.** And the GI50 [2]?
**A.** The GI50 was 50 to 200 nM.

**Q.** `C=CC(=O)N1CCC(c2csc3ncnc(Nc4ccc(Oc5ccnc(NC(=O)C(C)(C)C)c5)cc4F)c23)CC1` [Compound 162, N-(4-(4-((5-(1-acryloylpiperidin-4-yl)thieno[2,3-d]pyrimidin-4-yl)amino)-3-fluorophenoxy)pyridin-2-yl)pivalamide] was tested. Which GI50 [1] did it give?
**A.** Its GI50 is > 1000 nM.

**Q.** What about the GI50 [2] of the same compound?
**A.** Its GI50 is 200 to 1000 nM.

**Q.** `C=CC(=O)N1CCC(c2n[nH]c3ncnc(Nc4ccc(Oc5cccc(S(=O)(=O)NC6CC(F)(F)C6)c5)cc4F)c23)CC1` [Compound 185, 3-(4-((3-(1-acryloylpiperidin-4-yl)-1H-pyrazolo[3,4-d]pyrimidin-4-yl)amino)-3-fluorophenoxy)-N-(3,3-difluorocycloButyl)benzenesulfonamide] was tested. Which GI50 [1] did it give?
**A.** The GI50 was 50 to 200 nM.

**Q.** What about the GI50 [2] of the same compound?
**A.** The GI50 was 50 to 200 nM.

**Q.** Which GI50 [1] does the source give for `C=CC(=O)N1CCC(c2n[nH]c3ncnc(Nc4ccc(Oc5ccnc(NC(=O)C(C)(C)C)c5)cc4F)c23)CC1` [Compound 192, N-(4-(4-((3-(1-acryloylpiperidin-4-yl)-1H-pyrazolo[3,4-d]pyrimidin-4-yl)amino)-3-fluorophenoxy)pyridin-2-yl)pivalamide] here?
**A.** Its GI50 is 50 to 200 nM.

**Q.** And the GI50 [2]?
**A.** The GI50 was 50 to 200 nM.

**Q.** Which results are given for `C=CC(=O)N1CCC(c2n[nH]c3ncnc(Nc4ccc(Oc5ccnc(NC(=O)c6cnn(C)c6)c5)cc4F)c23)CC1` [Compound 196, N-(4-(4-((3-(1-acryloylpiperidin-4-yl)-1H-pyrazolo[3,4-d]pyrimidin-4-yl)amino)-3-fluorophenoxy)pyridin-2-yl)-1-methyl-1H-pyrazole-4-carboxamide]?
**A.** GI50 [1]: 200 to 1000 nM; GI50 [2]: 200 to 1000 nM
